In ChEMBL document CHEMBL4020831, “Discovery of GDC-0853: A Potent, Selective, and Noncovalent Bruton's Tyrosine Kinase Inhibitor in Early Clinical Development” (J Med Chem, 2018):

Columns and labels:
physchem = settings: buffer, pH 7.4
[1] = Clearance in human liver microsomes at 1 uM incubated up to 60 mins by LC-MS/MS method; format: ADME, microsome
[2] = target: T1, Tyrosine-protein kinase BTK (Homo sapiens, UniProt Q06187); test: Inhibition of human recombinant C-terminal polyhistidine tagged BTK (1 to 659 residues)-mediated synthetic peptide substrate phosphorylation expressed in baculovirus-infected insect cells
[3] = target: T1, Tyrosine-protein kinase BTK
Description: Inhibition of BTK in human whole blood-derived CD19+ B cells assessed as suppression of anti-IgM stimulated-CD69 expression preincubated for 1 hr followed by IgM stimulation for 18 hrs by FACS analysis

in vitro = settings: dog, MDCK
Description: Efflux ratio of permeability in MDCK1 cells

[4] = Permeability across apical to basolateral in MDCK1 cells; format: ADME, cell-based, Canis lupus familiaris; settings: dog, MDCK; read-out: permeability

T1 sequence (Q06187 whole entry, the tested form may be a part): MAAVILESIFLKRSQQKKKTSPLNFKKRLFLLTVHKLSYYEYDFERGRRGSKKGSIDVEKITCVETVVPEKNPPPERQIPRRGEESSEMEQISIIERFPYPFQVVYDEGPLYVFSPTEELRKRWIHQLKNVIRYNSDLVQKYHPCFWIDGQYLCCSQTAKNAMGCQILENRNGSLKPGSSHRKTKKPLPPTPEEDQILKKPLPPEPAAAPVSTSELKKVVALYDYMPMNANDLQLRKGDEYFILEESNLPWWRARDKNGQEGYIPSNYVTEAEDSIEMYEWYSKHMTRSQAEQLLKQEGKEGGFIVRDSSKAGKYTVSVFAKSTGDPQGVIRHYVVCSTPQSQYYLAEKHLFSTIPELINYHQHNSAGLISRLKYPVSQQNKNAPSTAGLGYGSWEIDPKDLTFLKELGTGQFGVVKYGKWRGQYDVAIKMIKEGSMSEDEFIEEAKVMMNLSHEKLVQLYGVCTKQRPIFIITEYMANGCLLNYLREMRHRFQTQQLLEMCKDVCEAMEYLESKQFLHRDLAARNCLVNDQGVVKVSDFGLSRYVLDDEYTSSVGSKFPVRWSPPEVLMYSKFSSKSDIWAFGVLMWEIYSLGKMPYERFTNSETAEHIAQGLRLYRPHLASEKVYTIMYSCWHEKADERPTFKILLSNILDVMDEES

Compound | logD (physchem) | CLhep predicted at 1 µM [1] [mL/min/kg] | Ki [2] [nM] | IC50 [3] [nM] | efflux ratio (in vitro) | Papp A→B [4] [×10⁻⁶ cm/s]
CC(=O)N1CCN(c2ccc(Nc3cc(-c4ccnc(N5CCn6c(cc7c6CC(C)(C)C7)C5=O)c4CO)cn(C)c3=O)nc2)CC1 | 2.9 | 8.8 | 1.8 | 66.5 | 1.2 | 11.1
COCCCN1CCN(c2ccc(Nc3cc(-c4ccnc(N5CCn6c(cc7c6CC(C)(C)C7)C5=O)c4CO)cn(C)c3=O)nc2)CC1 | 3.3 | 12 | 1 | 32.2 | 1.3 | 9
CC(=O)N1CC2(C1)CN(c1ccc(Nc3cc(-c4ccnc(N5CCn6c(cc7c6CC(C)(C)C7)C5=O)c4CO)cn(C)c3=O)nc1)C2 | 2.5 | 10 | 3.3 | 33.4 | – | –
COCCN1CCN(c2ccc(Nc3cc(-c4ccnc(N5CCn6c(cc7c6CC(C)(C)C7)C5=O)c4CO)cn(C)c3=O)nc2)CC1 | 3.2 | 12 | 1.2 | 36.6 | 1 | 12.5
Cn1cc(-c2ccnc(-n3ccn4c5c(cc4c3=O)CCCC5)c2CO)cc(Nc2ccc(N3CCN(C4COC4)CC3)cn2)c1=O | – | 9.2 | 4.2 | – | – | –
Cn1cc(-c2ccnc(N3Cc4cc(C(C)(C)C)sc4C3=O)c2CO)cc(Nc2ccc(N3CCN(C4COC4)CC3)cn2)c1=O | – | 10 | 1 | – | – | –
Cn1cc(-c2ccnc(N3CCc4c(sc5c4CCCC5)C3=O)c2CO)cc(Nc2ccc(N3CCN(C4COC4)CC3)cn2)c1=O | – | 13 | 5.97 | – | – | –
Cn1cc(-c2ccnc(N3CCn4c5c(c(F)c4C3=O)CCCC5)c2CO)cc(Nc2ccc(N3CCN(C4COC4)CC3)cn2)c1=O | – | 8.1 | 2.5 | – | – | –
Cn1cc(-c2ccnc(N3CCc4c(sc5c4CC(C)(C)C5)C3=O)c2CO)cc(Nc2ccc(N3CCN(C4COC4)CC3)cn2)c1=O | – | 13.5 | 0.58 | – | – | –
Cn1cc(-c2ccnc(N3CCn4c(cc5c4CC(C)(C)C5)C3=O)c2CO)cc(Nc2ccc(N3CCN(C4CCOCC4)CC3)cn2)c1=O | – | 14 | 0.45 | 31.6 | – | –

The next lines start with the values.

logD (physchem) | CLhep predicted at 1 µM [1] [mL/min/kg] | Ki [2] [nM] | IC50 [3] [nM] | efflux ratio (in vitro) | Papp A→B [4] [×10⁻⁶ cm/s] | Compound
2.3 | 13 | 0.32 | 27.5 | – | – | C[C@H]1CN(c2ccc(Nc3cc(-c4cc(F)cc(N5CCn6c(cc7c6CCCC7)C5=O)c4CO)cn(C)c3=O)nc2)CCN1C
3.1 | 15 | – | – | – | – | CN1CCN(c2ccc(Nc3cc(-c4cc(F)cc(N5CCn6c(cc7c6CCCC7)C5=O)c4CO)cn(C)c3=O)nc2)CC1
3.3 | 13 | 0.43 | 12.7 | – | – | C[C@@H]1CN(c2ccc(Nc3cc(-c4cc(F)cc(N5CCn6c(cc7c6CCCC7)C5=O)c4CO)cn(C)c3=O)nc2)CCN1C
1.9 | 7.9 | 6.3 | 64.4 | – | – | Cn1cc(-c2cncc(N3CCn4c(cc5c4CCCC5)C3=O)c2CO)cc(Nc2ccc(N3CCN(C4COC4)CC3)cn2)c1=O
3.2 | 14 | 0.65 | 4.6 | – | – | C[C@H]1CN(C)CCN1c1ccc(Nc2cc(-c3cc(F)cc(N4CCn5c(cc6c5CCCC6)C4=O)c3CO)cn(C)c2=O)nc1
1.8 | 8 | 6.9 | 387 | – | – | Cn1cc(-c2nccc(N3CCn4c(cc5c4CCCC5)C3=O)c2CO)cc(Nc2ccc(N3CCN(C4COC4)CC3)cn2)c1=O
3.1 | 13 | 0.37 | 16.9 | – | – | C[C@@H]1CN(C)CCN1c1ccc(Nc2cc(-c3cc(F)cc(N4CCn5c(cc6c5CCCC6)C4=O)c3CO)cn(C)c2=O)nc1
2 | 8.1 | 1.8 | 54.9 | – | – | Cn1cc(-c2ccnc(N3CCn4c(cc5c4CCCC5)C3=O)c2CO)cc(Nc2ccc(N3CCN(C4COC4)CC3)cn2)c1=O
